Laboratory results: US8835433B2, “Optically pure diastereomers of 10-Propargyl-10-deazaaminopterin and methods of using same for the treatment of cancer” (Allos Therapeutics, Inc., priority 2010, dated 2014)

Key:
[1] = system: CWR22-RV1 (prostate) cell lines; experiment: MTS growth inhibition assay, CWR22-RV1; type: cell-based; details: Homo sapiens, CWR22Rv1, separate experiments
[2] = system: SKBR-3 (breast cancer) human tumor cell line; experiment: MTS growth inhibition assay, SKBR-3; type: cell-based; details: SK-BR-3, SK-BR3 (breast), 3 h treatment, 72 h recovery
Protocol: (§1) The agents PDX, PDX-10a, PDX-10b, were evaluated for growth inhibitory activity against, MDA-MB-435, SKBR-3 and NCI-H460 human tumor cell lines. Growth inhibition was measured by MTS assay following three hours of continuous treatment and a seventy-two hour recovery incubation. The purpose of these studies was to determine the cytotoxic activity of the compounds in the tumor cell lines studies studied.
Materials and Methods. Preparation of PDX-10a and PDX-10b was performed as discussed in Examples 1-2. The PDX compounds were diluted in dimethylsulfoxide (DMSO) at a concentration of 20 mM. From this solution a stock solution of 2 mM was made by dilution with phosphate-buffered saline (PBS). This 2 mM stock solution in 10% DMSO/90% PBS was used to make 2× concentrations of the titration series in cell growth medium which was added to the cell cultures in a 1:1 ratio to make 1× concentrations. Cell lines—The human tumor cell lines: MDA-MB-435 (melanoma), SKBR-3 (breast cancer) and NCI-H460 (lung cancer) were cultured in RPMI medium (RPMI; Nova Tech, Grand Island, N.Y.) containing ten percent dialyzed fetal bovine serum (FBS; Nova Tech). […]
Single Agent Pulse Studies—Treatment with test agents or standard agents (controls) was initiated 24 hours after plating cells (Day 1). […] Following incubation, the viable cell number was quantified by the MTS assay described below. […]
MTS Assay—Cell viability was determined using the MTS assay. […] Formazan production was quantified by spectrophotometric measurement at 490 nm and is proportional to viable cell number. […] Absorbance (OD) values were measured using a Dynex HD microplate reader at a single wavelength of 490 nm.
Data Analysis—Data from each experiment was collected and expressed as OD490 versus the log10 of the test agent concentration. […]

[3] = system: NCI-H460 (lung cancer) human tumor cell line; experiment: MTS growth inhibition assay, NCI-H460; type: cell-based
Protocol: as §1
Materials and Methods. Preparation of PDX-10a and PDX-10b was performed as discussed in Examples 1-2. The PDX compounds were diluted in dimethylsulfoxide (DMSO) at a concentration of 20 mM. From this solution a stock solution of 2 mM was made by dilution with phosphate-buffered saline (PBS). This 2 mM stock solution in 10% DMSO/90% PBS was used to make 2× concentrations of the titration series in cell growth medium which was added to the cell cultures in a 1:1 ratio to make 1× concentrations. Cell lines—The human tumor cell lines: MDA-MB-435 (melanoma), SKBR-3 (breast cancer) and NCI-H460 (lung cancer) were cultured in RPMI medium (RPMI; Nova Tech, Grand Island, N.Y.) containing ten percent dialyzed fetal bovine serum (FBS; Nova Tech). Once cells reached seventy percent confluency, they were trypsinized and resuspended in an alternate media (RPMI containing five percent dialyzed FBS (Hyclone, Logan, Utah). One day prior to treatment (Day 0), cultures were suspended at a concentration of 1−7.5×10^4 cell/ml and 100 μl aliquots were plated into each well of a 96-well microtiter plate at a final concentration of 1×10^3-7.5×10^3 cells/well. Cells were incubated for 24 hours at 37° C. prior to exposure with agents.
Test Agents—racemic PDX, and individual diastereomers PDX-10a and PDX-10b were prepared as described above. Cells were treated 24 hours after plating (Day 1) with vehicle (media) alone or the above test agents for three hours at concentrations between 3 μM and 10 μM.
Single Agent Pulse Studies—Treatment with test agents or standard agents (controls) was initiated 24 hours after plating cells (Day 1). Cells were incubated at 37° C. with each of the test agents or a “chemococktail” (positive control) consisting of 215 μM Etoposide, 20 μM Taxol, 38.5 nM Velcade at final concentration for three hours. Following treatment, drug was removed, growth media added, and cells incubated at 37° C. for 72 hours. Following incubation, the viable cell number was quantified by the MTS assay described below. Experiments were repeated twice at the same concentrations. Results from these studies were used to calculate an IC50 value (concentration of drug that inhibits cell growth by 50% of the vehicle) for each compound. IC50 values were generated with Prizm software.
MTS Assay—Cell viability was determined using the MTS assay. This colorimetric procedure measures conversion of the MTS reagent (a tetrazolium salt) to formazan by living cells. Formazan production was quantified by spectrophotometric measurement at 490 nm and is proportional to viable cell number. For these studies, cells were cultured and treated as listed above. At the end of the treatment, 20 μl MTS tetrazolium (1.9 mg/ml in PBS, pH 6.0) was added to the cells for 1 hour at 37° C. Absorbance (OD) values were measured using a Dynex HD microplate reader at a single wavelength of 490 nm.
Data Analysis—Data from each experiment was collected and expressed as OD490 versus the log10 of the test agent concentration. Using the statistical analysis package of the Prizm analytical software (GraphPad, San Diego, Calif.), a non-linear curve fit was performed which yielded the 50% inhibition concentration of the test article (IC50).

[4] = Pharmacokinetics in rat (PDX-T-07034-R); type: in vivo; details: plasma, 5 mg/kg; for half-life: read-out: t1/2 term
Protocol: Bioanalytical methods were developed and validated for quantitation of the 2 pralatrexate C10 diastereomers (PDX-10a and PDX-10b) in human, rat and dog plasma and urine. The basic bioanalytical method involves extraction of PDX-10a and PDX-10b from the matrix utilizing C18 solid-phase extraction (SPE) cartridges followed by derivatization (methylation with acetyl chloride) of the diastereomers for separation detection. The derivatized extracts are injected on a chiral high-performance liquid chromatography (HPLC) column for quantitation of each diastereomer by liquid chromatography-tandem mass spectrometry (LC/MS/MS). The lower limit of quantitation (LLOQ) for both diastereomers in plasma and urine matrices was 0.5 ng/mL. […]

[5] = Pharmacokinetics in human (PDX-008, noncompartmental); type: in vivo; details: for Vd / clearance / half-life: human, plasma, intravenous; for half-life: read-out: t1/2 term
Protocol: Bioanalytical methods were developed and validated for quantitation of the 2 pralatrexate C10 diastereomers (PDX-10a and PDX-10b) in human, rat and dog plasma and urine. The basic bioanalytical method involves extraction of PDX-10a and PDX-10b from the matrix utilizing C18 solid-phase extraction (SPE) cartridges followed by derivatization (methylation with acetyl chloride) of the diastereomers for separation detection. The derivatized extracts are injected on a chiral high-performance liquid chromatography (HPLC) column for quantitation of each diastereomer by liquid chromatography-tandem mass spectrometry (LC/MS/MS). The lower limit of quantitation (LLOQ) for both diastereomers in plasma and urine matrices was 0.5 ng/mL.
In humans, PDX-10b clearance was approximately 50% lower for both renal clearance (CLren) and nonrenal clearance (CLnonren). The lower clearance and ˜2-fold lower volume of distribution at steady state (Vdss) of PDX-10b are likely responsible for the 2-fold higher plasma exposure of PDX-10b compared with PDX-10a that is observed in humans. However, the plasma concentration-time profiles for both diastereomers declined in parallel, and terminal elimination half-life (t1/2term) for both diastereomers was virtually identical. The biological cause for the observed stereoselectivity across species is unknown, but may be due to isomeric differences in plasma protein binding. Isomeric differences in tissue distribution and/or renal and hepatobiliary transport may contribute as well.

[6] = Homo sapiens, NCI-H460, NCI-H460 (lung), 3 h treatment, 72 h recovery, MTS
[7] = Homo sapiens, NCI-H460, NCI-H460 repeat assay
[8] = both sexes, Day 1, 5 mg/kg, range of the mean for males and females and for PDX-10a and PDX-10b, read-out: CLtot
[9] = both sexes, Day 1, 5 mg/kg, range of the mean for males and females and for PDX-10a and PDX-10b, read-out: Vdss
[10] = both sexes, Day 1, 5 mg/kg, range of the mean for males and females and for PDX-10a and PDX-10b
[11] = both sexes, Day 1, calculated using average BW 0.35 kg, read-out: Vdss relative to BW
[12] = both sexes, Day 85, 5 mg/kg, range of the mean for males and females and for PDX-10a and PDX-10b, read-out: CLtot
[13] = both sexes, Day 85, 5 mg/kg, range of the mean for males and females and for PDX-10a and PDX-10b, read-out: Vdss
[14] = both sexes, Day 85, 5 mg/kg, range of the mean for males and females and for PDX-10a and PDX-10b
[15] = Day 1, calculated using average BW 0.35 kg, read-out: CLtot relative to BW
[16] = both sexes, 0.81 mg/kg, C1D1, calculated using average BW 85 kg, read-out: Vdss relative to BW
[17] = both sexes, 30 mg/m2, human, C1D1, 30 mg/m^2, range of the mean for males and females and for PDX-10a and PDX-10b, read-out: CLtot
[18] = both sexes, 30 mg/m2, human, C1D1, 30 mg/m^2, range of the mean for males and females and for PDX-10a and PDX-10b, read-out: Vdss
[19] = both sexes, 30 mg/m2, human, C1D1, 30 mg/m^2, range of the mean for males and females and for PDX-10a and PDX-10b
[20] = both sexes, 30 mg/m2, human, C1D6 or C2D6, 30 mg/m^2, range of the mean for males and females and for PDX-10a and PDX-10b, read-out: CLtot
[21] = both sexes, 30 mg/m2, human, C1D6 or C2D6, 30 mg/m^2, range of the mean for males and females and for PDX-10a and PDX-10b, read-out: Vdss
[22] = both sexes, 30 mg/m2, human, C1D6 or C2D6, 30 mg/m^2, range of the mean for males and females and for PDX-10a and PDX-10b
[23] = 0.81 mg/kg, C1D1, calculated using average BW 85 kg, read-out: CLtot relative to BW

Row | IC50 [2] [nM] | IC50 [3, 6] [nM] | IC50 [3, 7] [nM] | clearance [4, 8] [mL/min] | Vd [4, 9] [L] | half-life [4, 10] [h] | Vd [4, 11] [L/kg] | clearance [4, 12] [mL/min] | Vd [4, 13] [L] | half-life [4, 14] [h] | clearance [4, 15] [mL/min/kg] | Vd [5, 16] [L/kg] | clearance [5, 17] [mL/min] | Vd [5, 18] [L] | half-life [5, 19] [h] | clearance [5, 20] [mL/min] | Vd [5, 21] [L] | half-life [5, 22] [h] | clearance [5, 23] [mL/min/kg] | SMILES | IC50 [1] [nM] | other results
1 | 26.1 | 45.8 | 46.2 | 2.9 to 4 | 0.07 to 0.89 | 1 to 20 | 0.2 to 2.5 | 3.4 to 3.9 | 0.15 to 0.18 | 1 to 6 | ~10 | 0.4 to 1.2 | 191 to 417 | 37 to 105 | 12 to 18 | 227 to 495 | 48 to 162 | 11 to 16 | 2 to 5 | C#CC[C@H](Cc1cnc2nc(N)nc(N)c2n1)c1ccc(C(=O)N[C@@H](CCC(=O)O)C(=O)O)cc1 (single isomer, unassigned) [PDX-10b] | 8.5 | higher plasma exposure compared with PDX-10a ([5]; humans): 2 fold; lower volume of distribution at steady state (Vdss) compared with PDX-10a ([5]; humans): ~2 fold; nonrenal clearance (CLnonren) lower compared with PDX-10a ([5]; humans): approximately 50%; renal clearance (CLren) lower compared with PDX-10a ([5]; humans): approximately 50%
2 | 11.9 | 289 | 169 | 2.9 to 4 | 0.07 to 0.89 | 1 to 20 | 0.2 to 2.5 | 3.4 to 3.9 | 0.15 to 0.18 | 1 to 6 | ~10 | 0.4 to 1.2 | 191 to 417 | 37 to 105 | 12 to 18 | 227 to 495 | 48 to 162 | 11 to 16 | 2 to 5 | C#CC[C@@H](Cc1cnc2nc(N)nc(N)c2n1)c1ccc(C(=O)N[C@@H](CCC(=O)O)C(=O)O)cc1 (single isomer, unassigned) [PDX-10a] | 13.3 | IC50 ([3]; NCI-H460 repeat assay): 169 nM
